In PMC2818883 (Inorganic chemistry, 2010):
Like-named read-outs stand apart in the source and are kept apart here.

Legend:
HIV = settings: cited from earlier work
HIV-2 (ROD) = assay: Anti-HIV activity in MT-4 cell cultures, HIV-2; format: cell-based; settings: read-out: av. IC50, average, MT-4 cells
MT-4 cells = assay: Cytotoxicity evaluation in uninfected MT-4 cells; format: cell-based
[1] = tested on: HIV-1 (IIIB) and HIV-2 (ROD) strains; format: cell-based; settings: for IC50: read-out: IC50 values, text summary over HIV-1 (IIIB) and HIV-2 (ROD) strains

In the case of c1cc(CN2CCCNCCNCCCNCC2)ccc1CN1CCCNCCNCCCNCC1 [AMD3100, xylylbicyclam], the IC50 (HIV; read-out: IC50 against HIV, entry inhibitor drug against HIV) is given as under 0.1 µM.

For O=S(=O)([O-])[O-].O=S(=O)([O-])[O-].[O]=[V+2].[O]=[V+2].c1cc(CN2CCCNCCNCCCNCC2)ccc1CN1CCCNCCNCCCNCC1 [Complex 3, oxovanadium(IV)-(xylylbicyclam) disulfate], the IC50 (HIV-2 (ROD)) was 3.3 µM, the CC50 (MT-4 cells) was over 151 µM and the “antiviral (anti-HIV) activity in words” value [1] was “highly active”. For the same molecule, the IC50 [1] was 1 to 5 µM.

In the case of [Cl-].[Cl-].[Cl-].[Cl-].[O]=[V+2].[O]=[V+2].c1cc(CN2CCCNCCNCCCNCC2)ccc1CN1CCCNCCNCCCNCC1 [Complex 4, oxovanadium(IV)-(xylylbicyclam) tetrachloride], the CC50 (MT-4 cells; read-out: av. CC50, average, uninfected MT-4 cells) is reported as over 161 µM, the CC50 (MT-4 cells; single determinations, reduces viability of uninfected MT-4 cells by 50%) is reported as over 161 µM and the “antiviral (anti-HIV) activity in words” value [1] is reported as “highly active”. It also gave an IC50 [1] of 0.1 to 0.3 µM.

In the case of Co(III)-cyclam, the “anti-HIV activity of metal cyclams in words” value (HIV) is listed as “inactive”.

In the case of “oxovanadium(IV)-cyclam dichloride [Complex 2]”, the “antiviral (anti-HIV) activity in words” value [1] is reported as “inactive” and the IC50 [1] is reported as over 360 µM.

In the case of Pd(II)-cyclam, the “anti-HIV activity of metal cyclams in words” value (HIV) is given as “inactive”.

For “oxovanadium(IV)-cyclam sulfate [Complex 1]”, the “antiviral (anti-HIV) activity in words” value [1] was “inactive” and the IC50 [1] was over 340 µM.
